For experiment [1], the target named is T1, SARS-CoV-2 PLpro (nsp3 1564–1878) (Severe acute respiratory syndrome coronavirus 2, UniProt P0DTD1). Description: biochemical. Details: FRET-quenched peptide (Pro3) cleavage by PLpro, 10 min pre-incubation, slope over 20 min, normalised to no-compound control. Particulars: high concentration screen, read-out: % of control remaining.
The target in experiment [2] is T1, SARS-CoV-2 PLpro (nsp3 1564–1878). Description: biochemical. Also noted: FRET-quenched peptide (Pro3) cleavage by PLpro, 10 min pre-incubation, slope over 20 min, normalised to no-compound control. Particulars: low concentration screen, read-out: % of control remaining.

The structures appear in SMILES notation. Structures can show the parent of a compound that is named as a salt. Where two headings read alike, the source gives them in different places.

For the compound `O=C(/C=C/c1ccc(O)c(O)c1)OCCc1ccccc1` [Caffeic acid phenethyl ester], the remaining activity at 3.75 µM in experiment [1] (Well no.=140) came out at 104%. In addition, the remaining activity at 1.25 µM in experiment [2] (Well no.=140) is 103%.
On to `O=C(O)/C=C/c1ccc(O)c(O)c1` [Caffeic acid], for which the remaining activity at 3.75 µM in experiment [1] (Well no.=233) was 99.3%; in experiment [1] (Well no.=3125) it was 104%; in experiment [1] (Well no.=3957) it was 96.7%; in experiment [1] (Well no.=7073) it was 95.2%. For the same compound, the remaining activity at 1.25 µM in experiment [2] (Well no.=233) worked out at 99%; in experiment [2] (Well no.=3957), 97%; in experiment [2] (Well no.=7073), 101%.
Regarding `Cn1c(=O)c2c(ncn2C)n(C)c1=O` [Caffeine], the remaining activity at 3.75 µM in experiment [1] (Well no.=329) was 95.9%; in experiment [1] (Well no.=1737), 103%; in experiment [1] (Well no.=3344), 91.8%. Also, the remaining activity at 1.25 µM is 95.2% in experiment [2] (Well no.=329), 105% in experiment [2] (Well no.=1737) and 89.5% in experiment [2] (Well no.=3344).
`C=C1CC[C@H](O)C/C1=C/C=C1\CCC[C@]2(C)[C@@H]([C@H](C)CCCC(C)(C)O)CC[C@@H]12` [Calcifediol]: in experiment [1] (Well no.=1821), the remaining activity at 3.75 µM worked out at 93.1%. Moreover, in experiment [2] (Well no.=1821), the remaining activity at 1.25 µM came to 90.8%.
In the case of `CNc1ccc2oc(C[C@H]3O[C@@]4(CC[C@H]3C)O[C@H]([C@H](C)C(=O)c3ccc[nH]3)[C@H](C)C[C@H]4C)nc2c1C(=O)O` [Calcimycin], in experiment [1] (Well no.=376), the remaining activity at 3.75 µM was determined as 96.8%. Besides, in experiment [2] (Well no.=376), the remaining activity at 1.25 µM was determined as 98.7%.
On to `C=C1/C(=C\C=C2/CCC[C@]3(C)[C@@H]([C@H](C)/C=C/[C@@H](O)C4CC4)CC[C@@H]23)C[C@@H](O)C[C@@H]1O` [Calcipotriene], for which the remaining activity at 3.75 µM in experiment [1] (Well no.=1760) came out at 96.3%. In experiment [2] (Well no.=1760), the remaining activity at 1.25 µM is 96.1%.
On to `C#CCOc1ccc2c(c1)c(-c1ccc(C(C)C)cc1)nc(=O)n2C(C)C` [Calcium-Sensing Receptor Antagonists I], for which the remaining activity at 3.75 µM in experiment [1] (Well no.=8007) came out at 98.6%. Further, in experiment [2] (Well no.=8007), the remaining activity at 1.25 µM was determined as 101%.
With `CCN[C@H]1CO[C@@H](O[C@H]2[C@H](O[C@H]3C#C/C=C\C#C[C@]4(O)CC(=O)C(NC(=O)OC)=C3/C4=C/CSSSC)O[C@H](C)[C@@H](NO[C@H]3C[C@H](O)[C@H](SC(=O)c4c(C)c(I)c(O[C@@H]5O[C@@H](C)[C@H](O)[C@@H](OC)[C@H]5O)c(OC)c4OC)[C@@H](C)O3)[C@@H]2O)C[C@@H]1OC` [Calicheamicin], in experiment [1] (Well no.=7060), the remaining activity at 3.75 µM is 91.6%. Further, in experiment [2] (Well no.=7060), the remaining activity at 1.25 µM was found to be 94.4%.
`Cc1ccc(O)c(N=Nc2c(O)cc(S(=O)(=O)O)c3ccccc23)c1` [Calmagite]: in experiment [1] (Well no.=8168), the remaining activity at 3.75 µM came to 82.2%. Also, the remaining activity at 1.25 µM in experiment [2] (Well no.=8168) turned out to be 96.3%.
Regarding `Clc1ccc(C(c2ccc(Cl)cc2)[n+]2ccn(CC(OCc3ccc(Cl)cc3Cl)c3ccc(Cl)cc3Cl)c2)cc1` (centres unmarked) [Calmidazolium chloride], the remaining activity at 3.75 µM in experiment [1] (Well no.=174) came out at 94.5%. In addition, the remaining activity at 1.25 µM in experiment [2] (Well no.=174) came out at 101%.
In the case of `CN(C)C(=O)COC(=O)Cc1ccc(OC(=O)c2ccc(NC(=N)N)cc2)cc1` [Camostat mesylate], in experiment [1] (Well no.=5405), the remaining activity at 3.75 µM is 109%. For the same compound, the remaining activity at 1.25 µM in experiment [2] (Well no.=5405) was 101%.
As to `CC[C@@]1(O)C(=O)OCc2c1cc1n(c2=O)Cc2cc3ccccc3nc2-1` [Camptothecin], the remaining activity at 3.75 µM in experiment [1] (Well no.=1664) was 84.5%; in experiment [1] (Well no.=3127), 91.9%. Also, the remaining activity at 1.25 µM in experiment [2] (Well no.=1664) was found to be 98.5%; in experiment [2] (Well no.=3127) it was 96.8%.
For the compound `Cc1ccc([C@@H]2O[C@H](CO)[C@@H](O)[C@H](O)[C@H]2O)cc1Cc1ccc(-c2ccc(F)cc2)s1` [Canagliflozin], the remaining activity at 3.75 µM in experiment [1] (Well no.=5075) was 95.2%. Also, the remaining activity at 1.25 µM in experiment [2] (Well no.=5075) was determined as 94.6%.
On to `CCOc1nc2cccc(C(=O)OC(C)OC(=O)OC3CCCCC3)c2n1Cc1ccc(-c2ccccc2-c2nn[nH]n2)cc1` (centres unmarked) [Candesartan (Cilexetil)], for which the remaining activity at 3.75 µM in experiment [1] (Well no.=7673) amounted to 92.5%. The remaining activity at 1.25 µM in experiment [2] (Well no.=7673) was 95.7%.
Take `CCOc1nc2cccc(C(=O)O)c2n1Cc1ccc(-c2ccccc2-c2nnn[nH]2)cc1` [Candesartan]: the remaining activity at 3.75 µM in experiment [1] (Well no.=1846) is 96.2%; in experiment [1] (Well no.=7380), 105%. The remaining activity at 1.25 µM in experiment [2] (Well no.=1846) was found to be 96.4%; in experiment [2] (Well no.=7380), 103%.
As for `C=CC(=O)Nc1cc2c(Nc3ccc(F)c(Cl)c3)ncnc2cc1OCCCN1CCOCC1` [Canertinib], the remaining activity at 3.75 µM in experiment [1] (Well no.=2693) turned out to be 107%. Further, the remaining activity at 1.25 µM in experiment [2] (Well no.=2693) stood at 105%.
`C[C@]12CCC(=O)C=C1C=C[C@@H]1[C@@H]2CC[C@@]2(C)[C@H]1CC[C@@]21CCC(=O)O1` [Canrenone]: the remaining activity at 3.75 µM in experiment [1] (Well no.=2181) was 98%. Besides, in experiment [2] (Well no.=2181), the remaining activity at 1.25 µM came to 93.5%.
On to `C[C@]1(C(=O)O)[C@@H]2CC[C@@H](O2)[C@@]1(C)C(=O)O` [Cantharidic Acid], for which, in experiment [1] (Well no.=378), the remaining activity at 3.75 µM amounted to 88.7%. In addition, the remaining activity at 1.25 µM in experiment [2] (Well no.=378) was 87.8%.
Regarding `C[C@@]12C(=O)OC(=O)[C@]1(C)[C@H]1CC[C@@H]2O1` [Cantharidin], the remaining activity at 3.75 µM in experiment [1] (Well no.=42) came out at 97.9%; in experiment [1] (Well no.=3129), 108%. The remaining activity at 1.25 µM was 94.6% in experiment [2] (Well no.=42) and 107% in experiment [2] (Well no.=3129).
For the compound `CC1=C(/C=C/C(C)=C/C=C/C(C)=C/C=C/C=C(C)/C=C/C=C(C)/C=C/C2=C(C)C(=O)CCC2(C)C)C(C)(C)CCC1=O` [Canthaxanthin], the remaining activity at 3.75 µM is 104% in experiment [1] (Well no.=1791) and 100% in experiment [1] (Well no.=4147). Also, the figures for the remaining activity at 1.25 µM in experiment [2] (Well no.=1791) and in experiment [2] (Well no.=4147) were 105% and 93.8%, respectively.
In the case of `N#Cc1c(N)nc(SCc2csc(-c3ccc(Cl)cc3)n2)c(C#N)c1-c1ccc(OCCO)cc1` [Capadenoson], the remaining activity at 3.75 µM in experiment [1] (Well no.=8649) was found to be 102%. In addition, in experiment [2] (Well no.=8649), the remaining activity at 1.25 µM was 106%.
`CCCCCOC(=O)Nc1nc(=O)n([C@@H]2O[C@H](C)[C@@H](O)[C@H]2O)cc1F` [Capecitabine]: the remaining activity at 3.75 µM in experiment [1] (Well no.=2290) turned out to be 96.5%. Further, the remaining activity at 1.25 µM in experiment [2] (Well no.=2290) was determined as 96.5%.
`CN1N=C2CCN(C(=O)[C@@H](COCc3ccccc3)NC(=O)C(C)(C)N)C[C@@]2(Cc2ccccc2)C1=O` [Capromorelin (Tartrate)]: in experiment [1] (Well no.=7235), the remaining activity at 3.75 µM came out at 102%. In addition, in experiment [2] (Well no.=7235), the remaining activity at 1.25 µM was 96.9%.
For `Oc1cc2c(cc1O)CN(C(=S)NCCc1ccc(Cl)cc1)CCC2` [Capsazepine], the remaining activity at 3.75 µM in experiment [1] (Well no.=631) was 99.5%. For the same compound, the remaining activity at 1.25 µM in experiment [2] (Well no.=631) is 98.8%.

For the origin of these results see paper PMC8286840, “Identifying SARS-CoV-2 antiviral compounds by screening for small molecule inhibitors of Nsp3 papain-like protease” (Biochemical Journal, 2021).
